Measurements reported in PubChem BioAssay AID248 (DTP/NCI, 2004).
Where “and” joins values, the source holds several entries; their conditions need not be identical. Equal values may be shown once. Inconclusive results and toxic doses are left out. No stated cut-off is given here; in the data, active means T/C of 150% or more; inactive means T/C below 125%.

Test system: L1210 leukemia ip in BDF1 mice, survival T/C
Assay: NCI In Vivo Anticancer Drug Screen. Data for tumor model L1210 Leukemia (intraperitoneal) in B6D2F1 (BDF1) mice
Conditions: endpoint: mean survival time, higher = longer survival
In short: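 Transplanted-tumor mice were given test agent; controls received vehicle only. Survival readings from the two groups were divided (treated over control).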

[1] = dose: 50.0 mg/kg/injection, schedule: Q01DX009 (ip), vehicle: Klucel (hydroxypropylcellulose) (HPC)
[2] = dose: 100.0 mg/kg/injection, schedule: Q01DX009 (ip), vehicle: Klucel (hydroxypropylcellulose) (HPC)
[3] = dose: 200.0 mg/kg/injection, schedule: Q01DX009 (ip), vehicle: Klucel (hydroxypropylcellulose) (HPC)
[4] = dose: 100.0 mg/kg/injection, schedule: Q04DX002 (ip), vehicle: saline with Tween-80
[5] = dose: 100.0 mg/kg/injection, schedule: Q01DX001 (ip), vehicle: Klucel (hydroxypropylcellulose) (HPC)
[6] = dose: 200.0 mg/kg/injection, schedule: Q01DX001 (ip), vehicle: Klucel (hydroxypropylcellulose) (HPC)
[7] = dose: 400.0 mg/kg/injection, schedule: Q01DX001 (ip), vehicle: Klucel (hydroxypropylcellulose) (HPC)
[8] = dose: 100.0 mg/kg/injection, schedule: Q04DX003 (ip), vehicle: saline with Tween-80
[9] = dose: 200.0 mg/kg/injection, schedule: Q04DX003 (ip), vehicle: saline with Tween-80
[10] = dose: 400.0 mg/kg/injection, schedule: Q04DX003 (ip), vehicle: saline with Tween-80
[11] = dose: 100.0 mg/kg/injection, schedule: Q04DX003 (ip), vehicle: Klucel (hydroxypropylcellulose) (HPC)
[12] = dose: 200.0 mg/kg/injection, schedule: Q04DX003 (ip), vehicle: Klucel (hydroxypropylcellulose) (HPC)
[13] = dose: 50.0 mg/kg/injection, schedule: Q01DX001 (ip), vehicle: saline
[14] = dose: 100.0 mg/kg/injection, schedule: Q01DX001 (ip), vehicle: saline
[15] = dose: 200.0 mg/kg/injection, schedule: Q01DX001 (ip), vehicle: saline
[16] = dose: 400.0 mg/kg/injection, schedule: Q01DX001 (ip), vehicle: saline
[17] = dose: 100.0 mg/kg/injection, schedule: Q04DX002 (ip), vehicle: Klucel (hydroxypropylcellulose) (HPC)
[18] = dose: 200.0 mg/kg/injection, schedule: Q04DX002 (ip), vehicle: Klucel (hydroxypropylcellulose) (HPC)
[19] = dose: 5.0 mg/kg/injection, schedule: Q01DX001 (ip), vehicle: saline
[20] = dose: 10.0 mg/kg/injection, schedule: Q01DX001 (ip), vehicle: saline
[21] = dose: 20.0 mg/kg/injection, schedule: Q01DX001 (ip), vehicle: saline
[22] = dose: 100.0 mg/kg/injection, schedule: Q04DX003 (ip), vehicle: saline
[23] = dose: 200.0 mg/kg/injection, schedule: Q04DX003 (ip), vehicle: saline
[24] = dose: 400.0 mg/kg/injection, schedule: Q04DX003 (ip), vehicle: saline

Measured: T/C

Cc1cc(CC#N)c(C)c([N+](=O)[O-])c1
inactive: dose: 25.0 mg/kg/injection, schedule: Q04DX003 (ip), vehicle: Klucel (hydroxypropylcellulose) (HPC) 96 % of control | dose: 50.0 mg/kg/injection, schedule: Q04DX003 (ip), vehicle: Klucel (hydroxypropylcellulose) (HPC) 89 % of control

COc1ccccc1C(C)=O
inactive: [1] 97 % of control | [2] 100 % of control | [3] 87 % of control

CN1CC2(Cc3ccccc3)c3ccccc3NC2(NC(=O)CCl)C1=O (centres undefined)
inactive: dose: 25.0 mg/kg/injection, schedule: Q04DX002 (ip), vehicle: saline with Tween-80 87 % of control | dose: 50.0 mg/kg/injection, schedule: Q04DX002 (ip), vehicle: saline with Tween-80 90 % of control | [4] 91 % of control

COc1ccccc1-n1c(O)c(N=Nc2ccccc2C)c(=O)n(-c2ccc(Cl)cc2)c1=S
inactive: [5] 95 % of control | [6] 96 % of control | [7] 98 % of control

CCOc1ccc(/C=N/Nc2ccc([N+](=O)[O-])cc2)cc1OC
inactive: dose: 25.0 mg/kg/injection, schedule: Q01DX009 (ip), vehicle: saline sonified 93 % of control | dose: 37.5 mg/kg/injection, schedule: Q01DX009 (ip), vehicle: saline with Tween-80 91 % of control | dose: 50.0 mg/kg/injection, schedule: Q01DX009 (ip), vehicle: saline sonified 103 % of control | dose: 75.0 mg/kg/injection, schedule: Q01DX009 (ip), vehicle: saline with Tween-80 93 % of control | dose: 100.0 mg/kg/injection, schedule: Q01DX009 (ip), vehicle: saline sonified 98 % of control | [8] 90 % of control | dose: 150.0 mg/kg/injection, schedule: Q01DX009 (ip), vehicle: saline with Tween-80 96 % of control | [9] 97 % of control | dose: 400.0 mg/kg/injection, schedule: Q04DX003 (ip), vehicle: saline sonified 88 % of control | [10] 87 % of control

Cc1ccc(NC(=O)NCCCl)cc1NC(=O)NCCCl
inactive: [1] 106 % of control | [2] 97 % of control | [11] 94 % of control | [3] 108 % of control | [12] 95 % of control

CC12CCC3c4ccc(Cc5ccc([N+](=O)[O-])cc5)cc4CCC3C1CCC2=O (centres undefined)
inactive: [13] 105 % of control | [14] 100 % of control | [15] 100 % of control | [16] 105 % of control

C(=P(c1ccccc1)(c1ccccc1)c1ccccc1)[P+](c1ccccc1)(c1ccccc1)c1ccccc1.[Br][Cu][Br]
inactive: dose: 1.56 mg/kg/injection, schedule: Q01DX009 (ip), vehicle: Klucel (hydroxypropylcellulose) (HPC) 101 % of control | dose: 3.13 mg/kg/injection, schedule: Q01DX009 (ip), vehicle: Klucel (hydroxypropylcellulose) (HPC) 109 % of control | dose: 6.25 mg/kg/injection, schedule: Q01DX009 (ip), vehicle: Klucel (hydroxypropylcellulose) (HPC) 114 % of control

CSc1ccc(NC(=O)C2CCCCC2C(=O)O)cc1 (centres undefined)
inactive: [17] 92 % of control | [18] 111 % of control | dose: 400.0 mg/kg/injection, schedule: Q04DX002 (ip), vehicle: Klucel (hydroxypropylcellulose) (HPC) 96 % of control

CON(C)c1nc(Cl)nc(Cl)n1
inactive: [13] 105 % of control | [5] 103 % of control | [14] 100 % of control | [2] 95 % of control | [6] 94 % of control | [15] 94 % of control | [3] 98 % of control | [7] 98 % of control | [16] 102 % of control | dose: 400.0 mg/kg/injection, schedule: Q01DX009 (ip), vehicle: Klucel (hydroxypropylcellulose) (HPC) 96 % of control

CCCCNC(=S)NN=C(N)N
inactive: [4] 96 % of control | dose: 200.0 mg/kg/injection, schedule: Q04DX002 (ip), vehicle: saline with Tween-80 100 % of control | dose: 400.0 mg/kg/injection, schedule: Q04DX002 (ip), vehicle: saline with Tween-80 92 % of control

CC(C)=CC1CC(C)C2(CCC3(C)CC4C(C(=O)CC4(C)O)/C(C=O)=C\CC32)O1 (centres undefined)
inactive: [19] 103 % of control | [20] 97 % of control | [21] 97 % of control | dose: 40.0 mg/kg/injection, schedule: Q01DX001 (ip), vehicle: saline 97 % of control | dose: 80.0 mg/kg/injection, schedule: Q01DX001 (ip), vehicle: saline 109 % of control

Oc1ccc(Nc2ccccc2)cc1
inactive: [14] 92 % of control | [22] 101 % of control | [15] 110 % of control | [23] 101 % of control | [16] 105 % of control | [24] 95 % of control

Nc1nc(Nc2ccccc2)nc(C(=O)O)n1
inactive: dose: 100.0 mg/kg/injection, schedule: Q01DX009 (ip), vehicle: saline 92 % of control | [22] 110 % of control | dose: 200.0 mg/kg/injection, schedule: Q01DX009 (ip), vehicle: saline 106 % of control | [23] 101 % of control | dose: 400.0 mg/kg/injection, schedule: Q01DX009 (ip), vehicle: saline 115 % of control | [24] 106 % of control

O=C1NC(=O)C2C3CCC(O3)C12 (centres undefined)
inactive: dose: 25.0 mg/kg/injection, schedule: Q04DX002 (ip), vehicle: Klucel (hydroxypropylcellulose) (HPC) 92 % of control and 98 % of control | dose: 50.0 mg/kg/injection, schedule: Q04DX002 (ip), vehicle: Klucel (hydroxypropylcellulose) (HPC) 96 % of control and 102 % of control | dose: 55.0 mg/kg/injection, schedule: Q01DX Z (ip), vehicle: methylcellulose (MC) 98 % of control | dose: 83.0 mg/kg/injection, schedule: Q01DX Z (ip), vehicle: methylcellulose (MC) 105 % of control | [17] 103 % of control and 98 % of control and 86 % of control | dose: 125.0 mg/kg/injection, schedule: Q01DX Z (ip), vehicle: methylcellulose (MC) 94 % of control | [18] 106 % of control

c1ccc([S+]([CH2][Hg][CH2][S+](c2ccccc2)c2ccccc2)c2ccccc2)cc1
inactive: [19] 92 % of control | [20] 109 % of control | [21] 119 % of control

CCOC(=O)C(NC(=O)CCl)C(=O)OCC
inactive: [1] 91 % of control | [2] 94 % of control | [11] 100 % of control | [3] 91 % of control | [12] 91 % of control

O=C(NCc1ccccc1)C1C2C=CC(C2)C1C(=O)NCc1ccccc1 (centres undefined)
inactive: [8] 96 % of control | [9] 91 % of control | [10] 91 % of control

CCN(CC)Cc1c(O)ccc2c3c(c(=O)oc12)CCCC3
inactive: dose: 10.0 mg/kg/injection, schedule: Q01DX001 (ip), vehicle: carboxymethylcellulose (CMC) 103 % of control | dose: 20.0 mg/kg/injection, schedule: Q01DX001 (ip), vehicle: carboxymethylcellulose (CMC) 97 % of control | dose: 40.0 mg/kg/injection, schedule: Q01DX001 (ip), vehicle: carboxymethylcellulose (CMC) 94 % of control | dose: 80.0 mg/kg/injection, schedule: Q01DX001 (ip), vehicle: carboxymethylcellulose (CMC) 96 % of control

O=C1CCCCC1Cc1ccccc1 (centres undefined)
inactive: dose: 200.0 mg/kg/injection, schedule: Q04DX003 (ip), vehicle: acetone 95 % of control

C=CC[n+]1ccccc1Br
inactive: dose: 62.0 mg/kg/injection, schedule: Q01DX015 (ip), vehicle: water 102 % of control | dose: 125.0 mg/kg/injection, schedule: Q01DX015 (ip), vehicle: water 106 % of control

F[Si](C1CCCCC1)(C1CCCCC1)C1CCCCC1
inactive: dose: 100.0 mg/kg/injection, schedule: Q01DX009 (ip), vehicle: saline with Tween-80 92 % of control | dose: 200.0 mg/kg/injection, schedule: Q01DX009 (ip), vehicle: saline with Tween-80 91 % of control | dose: 400.0 mg/kg/injection, schedule: Q01DX009 (ip), vehicle: saline with Tween-80 89 % of control
